# Measurements from patent US20160146815A1, “METHOD FOR SCREEING CANCER METASTASIS INHIBITOR USING CULTURE OF CELLS OR SPHEROIDICALLY AGGREGATED CELLS IN WHICH LYSYL-TRNA SYNTHETASE IS REGULATED TO BE EXPRESSED OR UNEXPRESSED” (Medicinal Bioconvergence Research Center, priority 2013, published 2016).
# Entries after “also recorded” stand apart in the source; their conditions may differ.
# Key:
# [1] = tested on: lysyl-tRNA synthetase (KRS); assay: KRS expression after shRNA transfection (Western blotting); type: cell-based, homo sapiens; settings: HCT116 cells transfected with KRS shRNA plasmid DNA
# Excerpt: Particularly, the cell line wherein KRS expression was suppressed was constructed by transfecting cells with lysyl-tRNA synthetase MISSION® shRNA plasmid DNA (Sigma, USA). At this time, the said KRS was homo sapiens lysyl-tRNA synthetase (transcript variant 1, mRNA sequence: NM_001130089.1). This KRS includes […] long exon 1˜15. Among the purchased KRS shRNA plasmid DNAs, shKRS-0 (SEQ. ID. NO: 1) targets 1581˜1604 bp (exon 12) of KRS, shRKS-1 (SEQ. ID. NO: 2) targets 437˜459 bp (exon 3˜4), shKRS-2 (SEQ. ID. NO: 3) targets 911˜933 bp (exon 7), and shKRS-5 (SEQ. ID. NO: 4) targets 1071˜1092 bp (exon 8). TRC1.5-pLK0.1-puro was used as the expression vector. Selection was performed by using puromycin to establish stable cell lines.
# Western blotting was performed to investigate whether or not the KRS expression was inhibited in the spheroidically aggregated cells of the KRS knock-out cell lines constructed by the method of Example <2-1>.
# [2] = tested on: HCT116 spheroidically aggregated cells; assay: Dissemination of cells from spheroidically aggregated cells in three-dimensional collagen gel (time-lapse microscope); type: cell-based, human
# Description: Particularly, 2.5 mg/Ml of collagen containing cells was loaded in the magnetic 4-well chamber (Live Cell Instrument, Korea) for the culture system of time-lapse microscope, and the collagen was hardened in a 37° C. incubator for 30 minutes. When the collagen was fully solidified, PRMI-1640 supplemented with 10% FBS was added thereto. The magnetic chamber containing three-dimensional collagen gel and its corresponding adaptor were placed on the time-lapse microscope, followed by setting the multi-position. […] 5% CO2 incubator. Culture medium was added thereto every 6 hours in order for the collagen not to be dried. At this time, it is important to maintain the focus not to be changed. […]
# As confirmed in the result of Example 14, when the HCT116 parental cells were treated with TGFβ1, the dissemination of cells from the spheroidically aggregated cells and migration thereof were observed. When the KRS knock-out cell line was treated with TGFβ1, the dissemination of cells was not observed. […] When the extracellular signal-regulated kinase (ERKs) inhibitor U0126 was treated to the HCT116 parental cells, it was presumed to be negative effect on the dissemination and migration of cells. To verify above, 50 μM of U0126, the ERKs inhibitor, was treated to the cell line, followed by observation of cell dissemination and migration by real-time live imaging of the spheroidically aggregated cells.
# [3] = tested on: HCT116 cells; assay: EMT marker protein expression in two-dimensional culture treated with cytokines (Western blotting); type: cell-based, human; settings: 10% FBS
# Description: Particularly, the cell line cultured in a two-dimensional environment with 10% serum was washed with PBS twice, followed by reaction at 4° C. for 15 minutes in 200 μl of lysis buffer [50 mM Tris-HCl, pH 7.4, 1% NP-40, 0.25% sodium deoxycholate, 150 mM NaCl, 1 mM EDTA] supplemented with SDS, Na3O4V, and protease inhibitor cocktails (GenDepot, USA). The cells were collected and centrifuged at 4° C. at 13000×g for 30 minutes. The supernatant was transferred in a new microcentrifuge tube, followed by protein quantification using BCA reagent (Thermo Scientifics, USA). To the quantified sample was added 4× sample buffer [100% glycerol 4 ml, Tris-HCl, pH 6.8, 2.4 ml, SDS 0.8 g, bromophenol blue 4 mg, β-mercaptoethanol 0.4 ml, H2O 3.1 ml (total 10 Ml)], which was boiled at 100° C. for 5 minutes. The prepared sample was treated with the primary antibodies of ZO-1 (Zymed, USA), β-catenin (Santa Cruz, USA), and E-cadherin by the same manner as described in Example <1-2>.
# To observe the surrounding microenvironmental factors in a two-dimensional culture environment over the time, the culture fluid supplemented with 10% FBS was additionally treated with such cytokines as TNFα and TGFβ, followed by investigation of the expression of the epithelial marker protein that can be an index for cell-cell adhesion by the same manner as described in Example <3-1>.
# [4] = TGFβ1, normal HCT116 and KRS over-expressing cell line
substance,measurement,setting,value
"shKRS-5: KRS MISSION shRNA plasmid DNA (Sigma), SEQ. ID. NO: 4, targets 1071˜1092 bp (exon 8) of KRS (DNA CCGGGCCTTTCATCACTTATCACAACTCGAGTTGTGATAAGTGATGAAAGGCTTTTTG)",KRS expression,[1],KRS inhibiting effect
"shKRS-0: KRS MISSION shRNA plasmid DNA (Sigma), SEQ. ID. NO: 1, targets 1581˜1604 bp (exon 12) of KRS (DNA CCGGCCTGGAAGTGACTTGCATCAACTCGAGTTGATGCAAGTCACTTCCAGGTTTTTG)",KRS expression,[1],KRS inhibiting effect
TNFα,formation of invasive protrusion,"[2]; TNFα, 36 hours, HCT116 parental cells, KRS over-expressing cell line and KRS knock-out cell line",increased
same,dissemination of cells from the cell mass and cell migration,"[2]; TNFα, 36 hours, parental, KRS over-expressing and KRS knock-out cell lines (regardless of KRS expression)",observed
same,epithelial marker protein like occludin (ZO-1 and occludin) expression,[3]; KRS knock-out cell line,increased
same,fibronectin expression,[3]; KRS knock-out cell line,reduced
same,expression of the epithelial marker protein,"[3]; TNFα, normal HCT116 and KRS over-expressing cell line",not changed
"shKRS-2: KRS MISSION shRNA plasmid DNA (Sigma), SEQ. ID. NO: 3, targets 911˜933 bp (exon 7) of KRS (DNA CCGGCCAGAGATACTTGGACTTGATCTCGAGATCAAGTCCAAGTATCTCTGGTTTTTG)",KRS expression,[1],KRS inhibiting effect
TGFβ1: the most representative multifunctional and EMT inducing cytokine,formation of invasive protrusion,"[2]; TGFβ1, 36 hours, HCT116 parental cells and KRS over-expressing cell lines",not observed
same,dissemination of cells from spheroid cells,"[2]; TGFβ1, HCT116 parental cells and KRS over-expressing cell lines",observed
same,cell migration,"[2]; TGFβ1, KRS knock-out cell line",significantly decreased
same,dissemination of cells,"[2]; TGFβ1, KRS knock-out cell line",not and not observed
same,epithelial marker protein like occludin (ZO-1 and occludin) expression,[3]; KRS knock-out cell line,increase; also recorded: up-regulated
same,fibronectin expression,[3]; KRS knock-out cell line,reduced; also recorded: down-regulated; also recorded: decrease
same,fibronectin expression,[3]; [4],up-regulated
same,occludin or ZO-1 expression,[3]; [4],down-regulated
